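A five-concentration, 48-hour dose response in 96-well plates underlies each endpoint, interpolated linearly between surrounding concentrations. Abbreviation: GI50, concentration required for 50% inhibition of growth. TGI denotes the concentration required for complete inhibition of growth.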
What was measured:
Experiment in all cases: NCI-60 cell line screen, 48 h
CCRF-CEM leukemia = test system: CCRF-CEM leukemia
IGROV1 ovarian = test system: IGROV1 ovarian
MCF7 breast = test system: MCF7 breast
NCI-H226 lung = test system: NCI-H226 lung
NCI-H23 lung = test system: NCI-H23 lung
OVCAR-3 ovarian = test system: OVCAR-3 ovarian
SK-OV-3 ovarian = test system: SK-OV-3 ovarian
SNB-19 CNS = test system: SNB-19 CNS
SNB-75 CNS = test system: SNB-75 CNS
TK-10 renal = test system: TK-10 renal
RPMI-8226 leukemia = test system: RPMI-8226 leukemia

| SMILES | TGI (CCRF-CEM leukemia) | TGI (IGROV1 ovarian) | TGI (MCF7 breast) | TGI (NCI-H226 lung) | TGI (NCI-H23 lung) | TGI (OVCAR-3 ovarian) | TGI (SK-OV-3 ovarian) | TGI (SNB-19 CNS) | TGI (SNB-75 CNS) | TGI (TK-10 renal) | TGI (RPMI-8226 leukemia) | GI50 (TK-10 renal) | GI50 (IGROV1 ovarian) | GI50 (MCF7 breast) | GI50 (NCI-H226 lung) | GI50 (NCI-H23 lung) | GI50 (OVCAR-3 ovarian) | GI50 (RPMI-8226 leukemia) | GI50 (SK-OV-3 ovarian) | GI50 (SNB-75 CNS) |
| --- | --- | --- | --- | --- | --- | --- | --- | --- | --- | --- | --- | --- | --- | --- | --- | --- | --- | --- | --- | --- |
| c1ccc(OCc2nnc(CCCCCCCCc3nnc(COc4ccccc4)o3)o2)cc1 | > 100 µM | > 100 µM | > 100 µM | > 100 µM | > 100 µM | > 100 µM | > 100 µM | > 100 µM | 83.4 µM | > 100 µM | – | – | – | – | – | – | – | – | – | – |
| CN1C/C(=C\c2cccs2)C(=O)/C(=C/c2cccs2)C1 | 26.7 µM | 92.2 µM | > 100 µM | > 100 µM | > 100 µM | > 100 µM | > 100 µM | > 100 µM | – | > 100 µM | 32.3 µM | – | – | – | – | – | – | – | – | – |
| CC1=C(C(=O)NCc2ccccc2)C(c2ccco2)C(C(=O)NCc2ccccc2)=C(C)N1 | > 100 µM | > 100 µM | – | > 100 µM | > 100 µM | > 100 µM | > 100 µM | > 100 µM | > 100 µM | > 100 µM | > 100 µM | – | – | – | – | – | – | – | – | – |
| Cc1cc(O)c(C(C)C)cc1C(=S)Nc1ccc(Cl)cc1 | 16.7 µM | 15.9 µM | 22.9 µM | – | 17.7 µM | 27.9 µM | 36.4 µM | – | – | – | 33 µM | – | – | – | – | – | – | – | – | – |
| CCOC(=O)C1=C(C)N(Cc2ccccc2)C2(O)C(OC)CC(=O)C3C(=O)N(c4ccccc4)C(=O)C132 (configuration not stated) | > 100 µM | 37.6 µM | 34.5 µM | 37.5 µM | > 100 µM | > 100 µM | – | 37.6 µM | – | 53 µM | > 100 µM | – | – | – | – | – | – | – | – | – |
| O=C1c2cc3ncsc3cc2C(=O)c2c(O)ccc(O)c21 | > 100 µM | > 100 µM | > 100 µM | > 100 µM | > 100 µM | > 100 µM | – | > 100 µM | > 100 µM | > 100 µM | > 100 µM | – | – | – | – | – | – | – | – | – |
| Cc1ccc2c(=O)cc(-c3cccc(F)c3)[nH]c2n1 | > 100 µM | > 100 µM | – | 0.475 µM | 0.739 µM | 0.0415 µM | – | – | – | > 100 µM | > 19.8 µM | – | – | – | – | – | – | – | – | – |
| Cc1cc(OCC(O)CO)ccc1Cl (configuration not stated) | > 100 µM | > 100 µM | – | > 100 µM | > 100 µM | > 100 µM | > 100 µM | > 100 µM | > 100 µM | > 100 µM | > 100 µM | – | – | – | – | – | – | – | – | – |
| Cc1ccc(S(=O)(=O)NC(=O)NC(CC(=O)O)C(=O)O)cc1 (configuration not stated) | > 100 µM | > 100 µM | > 100 µM | – | > 100 µM | – | > 100 µM | > 100 µM | > 100 µM | > 100 µM | > 100 µM | – | – | – | – | – | – | – | – | – |
| CCCCCCCCCCOc1ccc(N=Nc2nnc(-c3ccc(OCCCCC)cc3)s2)cc1 | > 100 µM | > 100 µM | > 100 µM | – | > 100 µM | > 100 µM | > 100 µM | > 100 µM | – | > 100 µM | > 100 µM | – | – | – | – | – | – | – | – | – |
| CC(C)(C)OC(=O)NNCC(O)COc1ccccc1 (configuration not stated) | > 100 µM | > 100 µM | > 100 µM | > 100 µM | > 100 µM | > 100 µM | > 100 µM | > 100 µM | – | > 100 µM | > 100 µM | – | – | – | – | – | – | – | – | – |
| CCCCOc1ccc(S(=O)(=O)/N=C(\NO)Nc2ccc(Cl)cc2)cc1 | 62.1 µM | – | 28.8 µM | 43.4 µM | 29.4 µM | 28.4 µM | – | 30.5 µM | – | 28.7 µM | 50.9 µM | – | – | – | – | – | – | – | – | – |
| CC(=O)c1c(O)cc(O)c(-c2c(C)cc(O)c3c2C(=O)c2cccc(O)c2C3=O)c1O | – | 29.8 µM | 29.8 µM | 58.1 µM | – | 56.2 µM | 27.4 µM | 39.1 µM | 38.1 µM | 35.6 µM | 35.5 µM | – | – | – | – | – | – | – | – | – |
| COc1ccc(/C=C2\OC(=O)C(Cl)=C2c2ccc(OC)c(Cl)c2)cc1 | > 100 µM | > 100 µM | 46.1 µM | – | 44.9 µM | 43.7 µM | > 100 µM | > 100 µM | 63.4 µM | 45.6 µM | 81.8 µM | – | – | – | – | – | – | – | – | – |
| CCOC(=O)CCC(NC(=O)c1ccc(Nc2nc3ccccc3nc2C(=O)OCC)s1)C(=O)OCC (configuration not stated) | – | > 100 µM | > 100 µM | > 100 µM | – | > 100 µM | > 100 µM | > 100 µM | > 100 µM | > 100 µM | > 100 µM | – | – | – | – | – | – | – | – | – |
| CC1CN=C(c2ccc(CN3CCC(CCCC4CCN(Cc5ccc(C6=NCC(C)N6)cc5)CC4)CC3)cc2)N1 (configuration not stated) | 67.4 µM | > 100 µM | 50.3 µM | > 100 µM | > 100 µM | > 100 µM | > 100 µM | 71.5 µM | 87.6 µM | > 100 µM | – | – | – | – | – | – | – | – | – | – |
| CC(C)(C)CC(C)(C)NCC(O)COc1ccc(C(C)(C)c2ccc(OCC(O)CNC(C)(C)CC(C)(C)C)cc2)cc1 (configuration not stated) | 1.03 µM | 3.23 µM | – | 3.51 µM | 3.14 µM | 2.47 µM | 3.24 µM | 3.01 µM | 2.79 µM | 3.32 µM | – | 1.75 µM | – | – | – | – | – | – | – | – |
| COc1ccc(C2=NN(c3nsc4ccccc34)C(=O)CC2)cc1 | > 100 µM | > 100 µM | – | – | > 100 µM | > 100 µM | – | > 100 µM | > 100 µM | > 100 µM | > 100 µM | – | – | – | – | – | – | – | – | – |
| CC1=NN(c2nc(N)nc(-c3cc4ccccc4oc3=N)n2)C(C)(C)C1 | 48.6 µM | 32.1 µM | > 100 µM | 30.4 µM | 29.7 µM | 31.6 µM | 34.7 µM | > 100 µM | – | 38.4 µM | 42.6 µM | – | – | – | – | – | – | – | – | – |
| COc1ccc(S(=O)(=O)Nc2cc(Sc3cccc4cccnc34)c(O)c3ccccc23)cc1 | – | 7.2 µM | 2.77 µM | 19.9 µM | 10.8 µM | 3.81 µM | 14.4 µM | – | 13.5 µM | 13.7 µM | 8.92 µM | 2.82 µM | 1.09 µM | 0.42 µM | 2.28 µM | 1.46 µM | 0.695 µM | 2.47 µM | 3.59 µM | 3.41 µM |
| O=C(O)c1cccc(S(=O)(=O)NN2C(=O)CSC2c2c(O)ccc3ccccc23)c1 (configuration not stated) | 46.4 µM | 45.1 µM | – | > 100 µM | 51.1 µM | 62.5 µM | > 100 µM | 87 µM | > 100 µM | > 100 µM | – | – | – | – | – | – | – | – | – | – |

— PubChem BioAssay (NCI)
